Assay results taken from the supplement of paper PMC13207355.

Legend:
Details in all cases: exposure time: 72 h
E13 [1] = patient-derived glioblastoma stem cells of classical subtype; assay: surviving fraction (nuclei count normalised to DMSO); higher = more cells surviving (less toxic)
E21 [2] = patient-derived glioblastoma stem cells of mesenchymal subtype; assay: as above
E28 [3] = patient-derived glioblastoma stem cells of classical subtype; assay: as above
E31 [4] = patient-derived glioblastoma stem cells of proneural subtype; assay: as above
E34 [5] = patient-derived glioblastoma stem cells of proneural subtype; assay: as above
E57 [6] = patient-derived glioblastoma stem cells of mesenchymal subtype; assay: as above
FT3469 [7] = normal neural stem cell line; assay: as above
E13 [8] = assay: phenotypic distance (Euclidean, principal components) from DMSO controls (arbitrary units); higher = stronger morphological change
E21 [9] = assay: as above
E28 [10] = assay: as above
E31 [11] = assay: as above
E34 [12] = assay: as above
E57 [13] = assay: as above
FT3469 [14] = assay: as above
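Wherever phenotypic distance (Euclidean, principal components) from DMSO controls is given: cell Painting imaging in 384-well plates, CellProfiler features reduced to at least 20 principal components, Euclidean distance versus same-plate DMSO vehicle wells (0.1% v/v), median over six images per well.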
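Wherever surviving fraction (nuclei count normalised to DMSO) is given: nuclei counted by high-content imaging of Hoechst-stained cells in laminin-coated 384-well plates, relative to 0.1% DMSO vehicle wells, with staurosporine as cell-death control.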

COc1cc([C@@H]2c3cc4c(cc3[C@@H](O[C@@H]3O[C@@H]5CO[C@@H](C)O[C@H]5[C@H](O)[C@H]3O)[C@H]3COC(=O)[C@H]23)OCO4)cc(OC)c1O [Etoposide]
Details | phenotypic distance | surviving fraction
E13 [1], 4.11523 nM | – | 1.03
E13 [1], 12.34567901 nM | – | 0.806
E13 [1], 37.037 nM | – | 0.901
E13 [1], 111.1111111 nM | – | 0.78
E13 [1], 333.333 nM | – | 0.516
E13 [1], 1000 nM | – | 0.473
E13 [1], 3000 nM | – | 0.374
E13 [8], 4.11523 nM | 1.04 | –
E13 [8], 12.34567901 nM | 0.799 | –
E13 [8], 37.037 nM | 0.736 | –
E13 [8], 111.1111111 nM | 0.704 | –
E13 [8], 333.333 nM | 2.88 | –
E13 [8], 1000 nM | 4.56 | –
E13 [8], 3000 nM | 5.77 | –
E21 [2], 4.11523 nM | – | 0.896
E21 [2], 12.34567901 nM | – | 0.855
E21 [2], 37.037 nM | – | 0.885
E21 [2], 111.1111111 nM | – | 0.812
E21 [2], 333.333 nM | – | 0.588
E21 [2], 1000 nM | – | 0.47
E21 [2], 3000 nM | – | 0.298
E21 [9], 4.11523 nM | 0.716 | –
E21 [9], 12.34567901 nM | 0.855 | –
E21 [9], 37.037 nM | 0.967 | –
E21 [9], 111.1111111 nM | 1.35 | –
E21 [9], 333.333 nM | 2.88 | –
E21 [9], 1000 nM | 5.75 | –
E21 [9], 3000 nM | 5.93 | –
E28 [3], 4.11523 nM | – | 0.881
E28 [3], 12.34567901 nM | – | 0.762
E28 [3], 37.037 nM | – | 0.621
E28 [3], 111.1111111 nM | – | 0.419
E28 [3], 333.333 nM | – | 0.436
E28 [3], 1000 nM | – | 0.266
E28 [3], 3000 nM | – | 0.364
E28 [10], 4.11523 nM | 0.783 | –
E28 [10], 12.34567901 nM | 1.11 | –
E28 [10], 37.037 nM | 1.44 | –
E28 [10], 111.1111111 nM | 1.78 | –
E28 [10], 333.333 nM | 2.64 | –
E28 [10], 1000 nM | 2.9 | –
E28 [10], 3000 nM | 2.64 | –
E31 [4], 4.11523 nM | – | 0.746
E31 [4], 12.34567901 nM | – | 0.823
E31 [4], 37.037 nM | – | 0.554
E31 [4], 111.1111111 nM | – | 0.493
E31 [4], 333.333 nM | – | 0.307
E31 [4], 1000 nM | – | 0.283
E31 [4], 3000 nM | – | 0.231
E31 [11], 4.11523 nM | 0.939 | –
E31 [11], 12.34567901 nM | 0.828 | –
E31 [11], 37.037 nM | 1.58 | –
E31 [11], 111.1111111 nM | 3.2 | –
E31 [11], 333.333 nM | 4.03 | –
E31 [11], 1000 nM | 2 | –
E31 [11], 3000 nM | 2.86 | –
E34 [5], 4.11523 nM | – | 0.83
E34 [5], 12.34567901 nM | – | 0.966
E34 [5], 37.037 nM | – | 0.848
E34 [5], 111.1111111 nM | – | 0.873
E34 [5], 333.333 nM | – | 0.668
E34 [5], 1000 nM | – | 0.534
E34 [5], 3000 nM | – | 0.557
E34 [12], 4.11523 nM | 0.877 | –
E34 [12], 12.34567901 nM | 0.742 | –
E34 [12], 37.037 nM | 0.789 | –
E34 [12], 111.1111111 nM | 1.03 | –
E34 [12], 333.333 nM | 2.75 | –
E34 [12], 1000 nM | 3.46 | –
E34 [12], 3000 nM | 4.17 | –
E57 [6], 4.11523 nM | – | 0.919
E57 [6], 12.34567901 nM | – | 1.01
E57 [6], 37.037 nM | – | 0.959
E57 [6], 111.1111111 nM | – | 0.851
E57 [6], 333.333 nM | – | 0.435
E57 [6], 1000 nM | – | 0.295
E57 [6], 3000 nM | – | 0.182
E57 [13], 4.11523 nM | 0.758 | –
E57 [13], 12.34567901 nM | 0.794 | –
E57 [13], 37.037 nM | 0.549 | –
E57 [13], 111.1111111 nM | 1.24 | –
E57 [13], 333.333 nM | 4.25 | –
E57 [13], 1000 nM | 6.83 | –
E57 [13], 3000 nM | 7.52 | –
FT3469 [7], 4.11523 nM | – | 0.827
FT3469 [7], 12.34567901 nM | – | 0.774
FT3469 [7], 37.037 nM | – | 0.902
FT3469 [7], 111.1111111 nM | – | 0.731
FT3469 [7], 333.333 nM | – | 0.662
FT3469 [7], 1000 nM | – | 0.582
FT3469 [7], 3000 nM | – | 0.566
FT3469 [14], 4.11523 nM | 0.576 | –
FT3469 [14], 12.34567901 nM | 0.799 | –
FT3469 [14], 37.037 nM | 3.73 | –
FT3469 [14], 111.1111111 nM | 1.07 | –
FT3469 [14], 333.333 nM | 1.54 | –
FT3469 [14], 1000 nM | 2.2 | –
FT3469 [14], 3000 nM | 1.92 | –
